13 molecules from patent publication US20230220021A1, “CYCLIC PEPTIDE INHIBITORS OF PSD-95 AND USES THEREOF” (University of Copenhagen, priority 2020, published 2023) can be followed below.

Where a SMILES comes first, the peptide text is derived from it. [ ]: non-standard residue; d: D form.

T1 sequence (P78352 160-246 limits assumed): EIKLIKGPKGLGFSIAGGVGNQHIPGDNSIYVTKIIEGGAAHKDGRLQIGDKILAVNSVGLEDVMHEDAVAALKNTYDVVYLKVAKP

This experiment has as its target T1, PSD-95-PDZ2 (Homo sapiens, UniProt P78352).
T1 construct: 7xHis (N); made in house; host or cells: Escherichia coli B21 pLys (for the mutants, 'as previously described')
Put plainly: Fluorescence polarization (FP) competition assay against cyclic nNOS TAMRA probe. The class given is binding. The note with it: FP competition, cyclic nNOS TAMRA probe; mean of triplicates; N.B. = not binding; read-out: Ki.
The Ki is the equilibrium dissociation constant of an inhibitor or competing ligand from its target. With `CC[C@H](C)[C@@H]1NC(=O)[C@H]([C@@H](C)O)NC(=O)[C@H](CCCCN)NC(=O)[C@@H]2CCCN2C(=O)[C@H]([C@@H](C)O)NC(=O)CNC(=O)[C@H](CC(=O)O)NC(=O)CNC(=O)[C@H]([C@@H](C)O)NC(=O)[C@H](Cc2ccccc2)NC(=O)[C@H]([C@@H](C)O)NC(=O)[C@H]([C@@H](C)O)NC(=O)[C@H](CCC(=O)O)NC(=O)[C@H](CC(C)C)NC(=O)[C@H](Cc2c[nH]cn2)NC(=O)[C@H]([C@@H](C)O)NC(=O)[C@H](CCC(N)=O)NC(=O)CNC(=O)[C@H]2CCCN2C(=O)[C@H](CCC(N)=O)N(C)C(=O)[C@H]([C@@H](C)O)NC(=O)[C@H](C(C)C)NC(=O)[C@H](CCCNC(=N)N)NC1=O` [compound 102], the Ki stood at 2200 nM.

For `CC[C@H](C)[C@@H]1NC(=O)[C@H]([C@@H](C)O)NC(=O)[C@H](CCCCN)NC(=O)[C@@H]2CCCN2C(=O)[C@H]([C@@H](C)O)NC(=O)CNC(=O)[C@H](CC(=O)O)NC(=O)CNC(=O)[C@H]([C@@H](C)O)NC(=O)[C@H](Cc2ccccc2)NC(=O)[C@H]([C@@H](C)O)NC(=O)[C@H]([C@@H](C)O)NC(=O)[C@H](CCC(=O)O)NC(=O)[C@H](CC(C)C)NC(=O)[C@H](Cc2c[nH]cn2)NC(=O)[C@@H]([C@H](C)O)NC(=O)[C@H](CCC(N)=O)NC(=O)CNC(=O)[C@H]2CCCN2C(=O)[C@H](CCC(N)=O)NC(=O)[C@H]([C@@H](C)O)NC(=O)[C@H](C(C)C)NC(=O)[C@H](CCCNC(=N)N)NC1=O` [compound 112], the Ki amounted to 14600 nM.

For the molecule `CC[C@H](C)[C@@H]1NC(=O)[C@H]([C@@H](C)O)NC(=O)[C@H](CCCCN)NC(=O)[C@@H]2CCCN2C(=O)[C@H]([C@@H](C)O)NC(=O)CNC(=O)[C@H](CC(=O)O)NC(=O)CNC(=O)[C@H]([C@@H](C)O)NC(=O)[C@H](Cc2ccccc2)NC(=O)[C@H]([C@@H](C)O)NC(=O)[C@H]([C@@H](C)O)NC(=O)[C@H](CCC(=O)O)NC(=O)[C@H](CC(C)C)NC(=O)[C@@H](Cc2c[nH]cn2)NC(=O)[C@H]([C@@H](C)O)NC(=O)[C@H](CCC(N)=O)NC(=O)CNC(=O)[C@H]2CCCN2C(=O)[C@H](CCC(N)=O)NC(=O)[C@H]([C@@H](C)O)NC(=O)[C@H](C(C)C)NC(=O)[C@H](CCCNC(=N)N)NC1=O` [compound 113], the Ki was determined as 13100 nM.

Regarding `CC[C@H](C)[C@@H]1NC(=O)[C@H]([C@@H](C)O)NC(=O)[C@H](CCCCN)NC(=O)[C@@H]2CCCN2C(=O)[C@H]([C@@H](C)O)NC(=O)CNC(=O)[C@@H](CC(=O)O)NC(=O)CNC(=O)[C@H]([C@@H](C)O)NC(=O)[C@H](Cc2ccccc2)NC(=O)[C@H]([C@@H](C)O)NC(=O)[C@H]([C@@H](C)O)NC(=O)[C@H](CCC(=O)O)NC(=O)[C@H](CC(C)C)NC(=O)[C@H](Cc2c[nH]cn2)NC(=O)[C@H]([C@@H](C)O)NC(=O)[C@H](CCC(N)=O)NC(=O)CNC(=O)[C@H]2CCCN2C(=O)[C@H](CCC(N)=O)NC(=O)[C@H]([C@@H](C)O)NC(=O)[C@H](C(C)C)NC(=O)[C@H](CCCNC(=N)N)NC1=O` [compound 120], the Ki is 590 nM.

On to `CC[C@H](C)[C@@H]1NC(=O)[C@H]([C@@H](C)O)NC(=O)[C@H](CCCCN)NC(=O)[C@@H]2CCCN2C(=O)[C@@H]([C@H](C)O)NC(=O)CNC(=O)[C@H](CC(=O)O)NC(=O)CNC(=O)[C@H]([C@@H](C)O)NC(=O)[C@H](Cc2ccccc2)NC(=O)[C@H]([C@@H](C)O)NC(=O)[C@H]([C@@H](C)O)NC(=O)[C@H](CCC(=O)O)NC(=O)[C@H](CC(C)C)NC(=O)[C@H](Cc2c[nH]cn2)NC(=O)[C@H]([C@@H](C)O)NC(=O)[C@H](CCC(N)=O)NC(=O)CNC(=O)[C@H]2CCCN2C(=O)[C@H](CCC(N)=O)NC(=O)[C@H]([C@@H](C)O)NC(=O)[C@H](C(C)C)NC(=O)[C@H](CCCNC(=N)N)NC1=O` [compound 121], for which the inhibition constant (Ki) amounted to 2000 nM.

Consider `CC[C@H](C)[C@@H]1NC(=O)[C@H]([C@@H](C)O)NC(=O)[C@H](CCCCN)NC(=O)[C@H]2CCCN2C(=O)[C@H]([C@@H](C)O)NC(=O)CNC(=O)[C@H](CC(=O)O)NC(=O)CNC(=O)[C@H]([C@@H](C)O)NC(=O)[C@H](Cc2ccccc2)NC(=O)[C@H]([C@@H](C)O)NC(=O)[C@H]([C@@H](C)O)NC(=O)[C@H](CCC(=O)O)NC(=O)[C@H](CC(C)C)NC(=O)[C@H](Cc2c[nH]cn2)NC(=O)[C@H]([C@@H](C)O)NC(=O)[C@H](CCC(N)=O)NC(=O)CNC(=O)[C@H]2CCCN2C(=O)[C@H](CCC(N)=O)NC(=O)[C@H]([C@@H](C)O)NC(=O)[C@H](C(C)C)NC(=O)[C@H](CCCNC(=N)N)NC1=O` [compound 122], for which the Ki was found to be 6700 nM.

With `CC[C@H](C)[C@@H]1NC(=O)[C@H]([C@@H](C)O)NC(=O)[C@@H](CCCCN)NC(=O)[C@@H]2CCCN2C(=O)[C@H]([C@@H](C)O)NC(=O)CNC(=O)[C@H](CC(=O)O)NC(=O)CNC(=O)[C@H]([C@@H](C)O)NC(=O)[C@H](Cc2ccccc2)NC(=O)[C@H]([C@@H](C)O)NC(=O)[C@H]([C@@H](C)O)NC(=O)[C@H](CCC(=O)O)NC(=O)[C@H](CC(C)C)NC(=O)[C@H](Cc2c[nH]cn2)NC(=O)[C@H]([C@@H](C)O)NC(=O)[C@H](CCC(N)=O)NC(=O)CNC(=O)[C@H]2CCCN2C(=O)[C@H](CCC(N)=O)NC(=O)[C@H]([C@@H](C)O)NC(=O)[C@H](C(C)C)NC(=O)[C@H](CCCNC(=N)N)NC1=O` [compound 123], the Ki came out at 23200 nM.

As for `CC[C@H](C)[C@@H]1NC(=O)[C@H]([C@@H](C)O)NC(=O)[C@H](CCCCN)NC(=O)[C@@H]2CCCN2C(=O)[C@H]([C@@H](C)O)NC(=O)CNC(=O)[C@H](CC(=O)O)NC(=O)CNC(=O)[C@H]([C@@H](C)O)NC(=O)[C@H](Cc2ccccc2)NC(=O)[C@H]([C@@H](C)O)NC(=O)[C@H]([C@@H](C)O)NC(=O)[C@H](CCC(=O)O)NC(=O)[C@H](CC(C)C)NC(=O)[C@H](Cc2c[nH]cn2)NC(=O)[C@H]([C@@H](C)O)NC(=O)[C@H](CCC(N)=O)NC(=O)CNC(=O)[C@H]2CCCN2C(=O)[C@H](CCC(N)=O)NC(=O)[C@H]([C@@H](C)O)NC(=O)[C@H](C(C)C)NC(=O)[C@@H](CCCNC(=N)N)NC1=O` [compound 126], the Ki was 9000 nM.

On to `CC[C@H](C)[C@@H]1NC(=O)[C@H]([C@@H](C)O)NC(=O)[C@H](CCCCN)NC(=O)[C@@H]2CCCN2C(=O)[C@H]([C@@H](C)O)NC(=O)CNC(=O)[C@H](CC(=O)O)NC(=O)CNC(=O)[C@H]([C@@H](C)O)NC(=O)[C@H](Cc2ccccc2)NC(=O)[C@H]([C@@H](C)O)NC(=O)[C@H]([C@@H](C)O)NC(=O)[C@H](CCC(=O)O)NC(=O)[C@H](CC(C)C)NC(=O)[C@H](Cc2c[nH]cn2)NC(=O)[C@H]([C@@H](C)O)NC(=O)[C@H](CCC(N)=O)NC(=O)CNC(=O)[C@H]2CCCN2C(=O)[C@H](CCC(N)=O)NC(=O)[C@@H]([C@H](C)O)NC(=O)[C@H](C(C)C)NC(=O)[C@H](CCCNC(=N)N)NC1=O` [compound 128], for which the Ki was determined as 1830 nM.

For the molecule `CC[C@H](C)[C@@H]1NC(=O)[C@H]([C@@H](C)O)NC(=O)[C@H](CCCCN)NC(=O)[C@@H]2CCCN2C(=O)[C@H]([C@@H](C)O)NC(=O)CNC(=O)[C@H](CC(=O)O)NC(=O)CNC(=O)[C@H]([C@@H](C)O)NC(=O)[C@H](Cc2ccccc2)NC(=O)[C@H]([C@@H](C)O)NC(=O)[C@H]([C@@H](C)O)NC(=O)[C@H](CCC(=O)O)NC(=O)[C@H](CC(C)C)NC(=O)[C@H](Cc2c[nH]cn2)NC(=O)[C@H]([C@@H](C)O)NC(=O)[C@H](CCC(N)=O)NC(=O)CNC(=O)[C@H]2CCCN2C(=O)[C@@H](CCC(N)=O)NC(=O)[C@H]([C@@H](C)O)NC(=O)[C@H](C(C)C)NC(=O)[C@H](CCCNC(=N)N)NC1=O` [compound 129], the Ki is 11100 nM.

On to `CC[C@H](C)[C@@H]1NC(=O)[C@H]([C@@H](C)O)NC(=O)[C@H](CCCCN)NC(=O)[C@@H]2CCCN2C(=O)[C@H](CC(=O)O)NC(=O)CNC(=O)[C@H](CC(=O)O)NC(=O)CNC(=O)[C@H](Cc2c[nH]c3ccccc23)NC(=O)[C@H](Cc2ccccc2)NC(=O)[C@H]([C@@H](C)O)NC(=O)[C@H]([C@@H](C)O)NC(=O)[C@H](CCC(=O)O)NC(=O)[C@H](CC(C)C)NC(=O)[C@H](Cc2c[nH]cn2)NC(=O)[C@H]([C@@H](C)O)NC(=O)[C@H](CCC(N)=O)NC(=O)CNC(=O)[C@H]2CCCN2C(=O)[C@H](CCC(N)=O)NC(=O)[C@H]([C@@H](C)O)NC(=O)[C@H](C(C)C)NC(=O)[C@H](CCCNC(=N)N)NC1=O` [compound 130] (cyclo(THLETTFWGDGDPKTIRVTQ[dP]GQ)), for which the Ki amounted to 650 nM.

As to `CC[C@H](C)[C@@H]1NC(=O)[C@H]([C@@H](C)O)NC(=O)[C@H](CCCCN)NC(=O)[C@@H]2CCCN2C(=O)[C@H]([C@@H](C)O)NC(=O)[C@@H]2CCCN2C(=O)[C@H](CC(=O)O)NC(=O)CNC(=O)[C@H](Cc2c[nH]c3ccccc23)NC(=O)[C@H](Cc2ccccc2)NC(=O)[C@H]([C@@H](C)O)NC(=O)[C@H]([C@@H](C)O)NC(=O)[C@H](CCC(=O)O)NC(=O)[C@H](CC(C)C)NC(=O)[C@H](Cc2c[nH]cn2)NC(=O)[C@H]([C@@H](C)O)NC(=O)[C@H](CCC(N)=O)NC(=O)CNC(=O)[C@H]2CCCN2C(=O)[C@H](CCC(N)=O)NC(=O)[C@H]([C@@H](C)O)NC(=O)[C@H](C(C)C)NC(=O)[C@H](CCCNC(=N)N)NC1=O` [compound 131] (cyclo(THLETTFWGDPTPKTIRVTQ[dP]GQ)), the Ki is 950 nM.

Take `CC[C@H](C)[C@@H]1NC(=O)[C@H]([C@@H](C)O)NC(=O)[C@H](CCCCN)NC(=O)[C@@H]2CCCN2C(=O)[C@H](CCC(=O)O)NC(=O)[C@H](C)NC(=O)[C@H](CC(=O)O)NC(=O)CNC(=O)[C@H](Cc2c[nH]c3ccccc23)NC(=O)[C@H](Cc2ccccc2)NC(=O)[C@H]([C@@H](C)O)NC(=O)[C@H]([C@@H](C)O)NC(=O)[C@H](CCC(=O)O)NC(=O)[C@H](CC(C)C)NC(=O)[C@H](Cc2c[nH]cn2)NC(=O)[C@H]([C@@H](C)O)NC(=O)[C@H](CCC(N)=O)NC(=O)CNC(=O)[C@H]2CCCN2C(=O)[C@H](CCC(N)=O)NC(=O)[C@H]([C@@H](C)O)NC(=O)[C@H](C(C)C)NC(=O)[C@H](CCCNC(=N)N)NC1=O` [compound 134] (cyclo(THLETTFWGDAEPKTIRVTQ[dP]GQ)): the Ki amounted to 260 nM.
